“Also recorded” adds a separate entry of the source.
How the values were obtained:
[1] = system: CCSP-rtTA/otet-TGFα transgenic mice; assay: Prevention of TGFα-induced pulmonary fibrosis, PX-866 given at initiation of TGFα induction; format: in vivo; settings: 4 weeks of Dox, PX-866 from initiation of TGFα induction
Text: (§1) CCSP-rtTA activator mice expressing the reverse tetracycline-responsive transactivator (rtTA) under control of the 2.3-kb rat Clara Cell Secretory Protein (CCSP), a.k.a. secretoglobin, family 1A, member 1 (Scgblal) gene promoter were mated to conditional doxycycline (Dox) regulated transgenic mice containing the human TGFα cDNA under the control of seven copies of the tetracycline operon ((TetO)7-cmv TGFα) plus a minimal CMV promoter. Single transgenic (CCSP-rtTA+/−) and bitransgenic CCSP-rtTA+/−/(TetO)7-cmv TGFα+/− mice were produced within the same litter by mating homozygous CCSP-rtTA+/+ mice to hemizygous (TetO)?-cmv TGFα+/− mice. All mice were derived from the FVB/NJ inbred strain. […]
(§2) Lung Histology, Immunostaining and Total Lung Collagen: Lungs were inflation fixed as previously described. […] Total lung collagen was determined by quantifying total soluble collagen (Sircol Collagen Assay, Biocolor, Ireland) as previously described.
(§3) Pulmonary Mechanics: Lung mechanics were assessed on mice with a computerized Flexi Vent system (SCIREQ, Montreal, Canada). […] The ventilation mode was changed to forced oscillatory signal (0.5-19.6 Hz), and respiratory impedance was measured. […]
(§4) Statistics: Means (+/−SEM) were calculated and plotted for each variable, by mouse group (CCSP/-Vehicle, CCSP/TGFα Vehicle, CCSP/TGFα PX-866). Data were assessed for normality using plots and the Shapiro-Wilk test. […]

[2] = system: phosphorylated Akt (P-Akt) Ser 473; assay: Western blot of TGFα-induced phosphorylation of Akt in lung homogenates; format: in vivo; settings: 1 day of Dox, PX-866 pretreatment 3 mg/kg by gavage, vs vehicle-treated transgenic mice
Text: as §1, with “strain. Mice were maintained in virus-free containment.” for “strain.”
Western Blots: Western blot analysis was performed on lung homogenates as previously described. Blots were incubated with antibodies against total and phosphorylated Akt (Ser 473 and Thr 308, Cell Signaling Technology) and quantified using the volume integration function on a PhosphorImager software Imagequant 5.2 (Molecular Dynamics, Sunnyvale, Calif.).
PX-866 inhibits TGFα-Induced Phosphorylation of Akt: CCSP-rtTA/otet-TGFαmice were treated with 1 day of Dox to induce TGFα expression. Phosphorylated Akt (P-Akt) levels for Ser 473 as measured by Western blot analysis increased over 5-fold compared to Dox-treated control mice.

[3] = system: CCSP-rtTA/otet-TGFα transgenic mice; assay: Progression of established TGFα-induced pulmonary fibrosis, PX-866 given after 4 weeks of Dox; format: in vivo; settings: 8 weeks of Dox
Text: CCSP-rtTA activator mice expressing the reverse tetracycline-responsive transactivator (rtTA) under control of the 2.3-kb rat Clara Cell Secretory Protein (CCSP), a.k.a. secretoglobin, family 1A, member 1 (Scgblal) gene promoter were mated to conditional doxycycline (Dox) regulated transgenic mice containing the human TGFα cDNA under the control of seven copies of the tetracycline operon ((TetO)7-cmv TGFα) plus a minimal CMV promoter. Single transgenic (CCSP-rtTA+/−) and bitransgenic CCSP-rtTA+/−/(TetO)7-cmv TGFα+/− mice were produced within the same litter by mating homozygous CCSP-rtTA+/+ mice to hemizygous (TetO)?-cmv TGFα+/− mice. All mice were derived from the FVB/NJ inbred strain. Mice were maintained in virus-free containment. All animal protocols were reviewed and approved by the Institutional Animal Use and Care Committee of the Cincinnati Children's Hospital Research Foundation. To induce TGFα expression, Dox (Sigma, St. Louis, Mo.) was administered in the drinking water at a final concentration of 0.5 mg/ml and in food (62.5 mg/kg). Water was replaced three times per week. Mice were genotyped as known in the art.
The PI3K inhibitor PX-866 (ProIX Pharmaceuticals, Tucson, Ariz.) was suspended into 5% EtOH to make a 5 mg/ml stock solution. Three hours prior to administration, food and water were removed from cages. Mice were then anesthetized (Isoflurane; Abbott Labs, Chicago, Ill.), and sterile vehicle or drug (3 mg/kg) was administered by gavage using a 20 gauge feeding catheter (Harvard Apparatus, Holliston, Mass.). Mice were treated with vehicle or PX-866 every other day for up to 4 weeks. Mice were killed with pentobarbital sodium (65 mg/ml) euthanasia solution (Fort Dodge Animal Health, Fort Dodge, Iowa) 1 day or 4 weeks after Dox and vehicle or PX-866 treatment.
as §2, §3, §4
Weights of mice in four different groups were measured at Baseline and at evenly spaced intervals during the next eight weeks, once per week. […] Differences in selected (a priori) Group*Time means were calculated and tested using a simulation-based adjustment for multiple comparisons. […]

[4] = aqueous solutions at 37° C. or 0° C. at neutral pH; cited from earlier work
[5] = PX-866 from 4 weeks after TGFα induction

| SMILES | lung mechanics (airway resistance, airway and tissue elastance, compliance) [1] | TGFα-induced phosphorylation of Akt (P-Akt, Ser 473) [2] | lung fibrosis by histology [3, 5] | lung mechanics (airway resistance, airway and tissue elastance, compliance) [3, 5] | total lung collagen [3, 5] | body weight ([3]; PX-866 from beginning of week 5) | stability in aqueous solution [4] |
| --- | --- | --- | --- | --- | --- | --- | --- |
| C=CCN(/C=C1/C(=O)O[C@H](COC)[C@@]2(C)C1=C(O)C(=O)C1=C2[C@H](OC(C)=O)C[C@]2(C)C(=O)CC[C@@H]12)CC=C [PX-866] | did not show any differences in lung mechanics; also recorded: prevented increases in airway resistance, airway and tissue elastance, and decreases in compliance | prevented TGFα-induced increases in P-Akt; also recorded: prevented increased phosphorylation of Akt | reduced pleural fibrosis as well as reduced perivascular and peribronchial fibrosis; also recorded: reduced fibrosis on lung histology; also recorded: attenuation of fibrosis | significantly improved compared with vehicle-treated mice; also recorded: improved lung mechanics; also recorded: reduced increases in airway resistance, and airway and tissue elastance, and decreases in compliance | reduced lung collagen levels; also recorded: unchanged compared with mice taken off Dox after 4 weeks | prevented further body weight loss; also recorded: normalization of body weights; also recorded: did not have changes in body weight |  |
| COC[C@H]1OC(=O)c2coc3c2[C@@]1(C)C1=C(C3=O)[C@@H]2CCC(=O)[C@@]2(C)C[C@H]1OC(C)=O [Wortmannin] |  |  |  |  |  |  | subject to decomposition by hydrolytic opening of the furan ring |
